# How the values were obtained:
# [1] = system: neural precursor cells (SVZ and SG); assay: Neural precursor cell proliferation (BrdU) after oral administration in adult mouse; assay type: in vivo; settings: 7 days BID, 10 mg/kg or 25 mg/kg
# Method: To test whether oral administration of the Hh agonist would affect proliferation of precursor cells, mice were dosed daily (once or twice/day, po) with either vehicle or the Hh agonist X″ for 1-7 days. On the appropriate day, mice were injected with BrdU (ip) and 2 hours later euthanized, perfused with fixative and brains processed for BrdU immunohistochemistry. The number of BrdU-IR cells was counted in both the SVZ and subgranular zone of the hippocampal dentate gyrus (SG).
# The data shown in FIGS. 57 and 58 are from a study in which mice were dosed orally for 7 days (BID) with either vehicle (n=4) or Hh agonist X″ (10 mg/kg, n=3 or 25 mg/kg, n=3). The day after the final dose, mice were injected with BrdU and 2 hrs. later brains were collected, processed, and analyzed as described above.
# [2] = system: nigrostriatal pathway (striatal DA and TH); assay: Mouse MPTP model of Parkinson's disease; assay type: in vivo; settings: pretreatment 0.3, 1, 3, and 10 mg/kg po for 3 days before MPTP; seven days post-lesioning, vs vehicle
# [3] = system: hedgehog-responsive Gli-Luc reporter-construct; assay: Gli-Luc hedgehog pathway reporter assay in [10T1/2(s12)] cells; assay type: cell-based, murine; settings: Table 1
# Method: To measure the hedgehog agonist activity of compounds, we used [10T1/2(s12)] cells containing the hedgehog-responsive Gli-Luc reporter-construct. In each MTP (MicroTiter Plate; 96-well plate), 10,000-20,000 cells were plated per well, in full media (10% FBS). After about 24-48 hr, plates were switched to low-serum media (=0.5%. FBS). Subsequently, a test compound was added at 1-5 μM in the presence or absence of octyl-hedgehog (see below). After another 24 hr, the media from the MTPs was discarded and replaced with luciferase assay-mix, containing lysis-buffer with luciferase substrate. The plates were incubated at RT for about 15-30 min and read in a luminometer.
# Plates were incubated for 48 hr before switching to low-serum. Compounds were screened at 1-2 μM in the presence of Hh protein (0.01 μg/ml; EC30=about 30% of max-induced activity).
# Plates were incubated for 24 hr before switching to low-serum. Compounds were screened at 5 μM without adding Hh protein.
# From Screen A, we identified hits identified in FIGS. 32 and 33. The 1,4-diaminocyclohexane subunit of the compounds of FIG. 32 which include this moiety have the two amino substituents disposed in a trans-relationship, e.g., both substituents equatorial on the cyclohexane subunit. These hits were confirmed in Screen B. The data shown in FIGS. 34a and 34b essentially involved dosing the two compounds in both assays (Gli-Luc & SV-Luc).
# The data from the Gli-Luc assay is converted to percent activity where full activity with Hh protein is set at 100% (FIG. 35; Table 1). […] Furthermore, the compounds show a more striking induction in the presence of hedgehog (EC50=0.2-0.3 μM, ECmax=70-90% of max induced activity with Hh protein), indicating a synergy between the compounds and Hh protein, consistent with the compounds serving as agonists for the hedgehog pathway.
# [4] = system: middle cerebral artery occlusion infarct; assay: Mouse MCAO model of stroke; assay type: in vivo
# Method: In this animal model, a small suture is inserted into the common carotid artery and threaded directly into the circulatory system of the brain. The suture is placed such that it blocks blood flow though the middle cerebral artery (MCA occlusion), which is the primary source of blood to the forebrain. After a set period of time, here 90 min, the suture is removed and blood flow to the forebrain is restored (reperfusion). The temporary blockage of blood flow to the forebrain results in behavioral symptoms and brain pathology that mimic those seen in human stroke patients. In the brain, within 24 hr post-MCA occlusion an infarct is visible using a stain (TTC) that stains living tissue red and the infarcted area white. The infarct following a 90 min MCAO usually involves both cortical and subcortical brain regions. In this study, mice were treated for 3 days (1/day) prior to MCAO with either vehicle (0.5% methyl cellulose, 0.2% Tween-80/0.9% NaCl, n=12) or the Hh agonist X″ (20 mg/kg, po, n=11). Animals were then subjected to 90 min MCAO followed by reperfusion. Approximately 24 hr after the start of occlusion ([…] of reperfusion) mice were euthanized and the brain sectioned into 2 mm slabs. The brain slices were stained with TTC to show the infarcted area of the brain. The infarct area/total forebrain (% infarct) was analyzed by measured and statistically analyzed. Male mice (7-8 wks of age) were subjected to 90 min MCAO followed by reperfusion. Animals were then treated with either vehicle (n=11) or the Hh agonist X″ (20 mg/kg, po, n=12) at the onset of reperfusion (90 min post-occlusion). Twenty-four hours after the onset of MCAO mice were euthanized, the brain sectioned into 2 mm slabs and slices stained with TTC for infarct size analysis.
# [5] = system: HEPM cells with a Gli-Luc construct; assay: Gli-Luc reporter in human embryonic palatal mesenchyme (HEPM) cells; assay type: cell-based
# Text: FIGS. 47A and B compare the activity of subject compounds O and R in mouse reporter cells (TM3 cells with a Gli-Luc reporter construct, as described above) and in human reporter cells (human embryonic palatal mesenchyme (HEPM) cells with a Gli-Luc construct).
# [6] = system: Ptc-1; assay: Quantitative RT-PCR (TaqMan) of Ptc-1 transcript in C3H 10T1/2 cells; assay type: cell-based, Murine; settings: compound concentration 8 μM
# Method: (§1) The compounds of FIGS. 32 and 33 were tested for their ability to activate transcription of two well-studied targets of the Hedgehog pathway: the transcription factor Gli-1, and the putative Hedgehog receptor component Ptc-1.
# (§2) Murine C3H 10T1/2 cells were seeded at approximately 200,000 cells per well in a 24-well plate in complete medium (10% FBS). After 24 hr, medium was removed and replaced with “starvation” medium (0.5% FBS) containing dilutions of compound or Hh protein. After 16-18 hr, total RNA was prepared using TriZol (Life Technologies, inc.).
# (§3) One-microgram aliquots of total RNA were used to prepare random hexamer-primed cDNA with […] Reverse transcriptase (Life Technologies, Inc.).
# (§4) To measure the relative levels of Gli-1 and Ptc-1 transcripts, TaqMan assays (PE Biosystems) were performed with an ABI Prism 7700 Sequence Detection System. As an internal control, GAPDH transcript levels were simultaneously measured in each reaction. Data were analyzed using Sequence Detector v 1.6.3 (Perkin Elmer).
# [7] = system: cerebellar neuron precursors; assay: Cerebellar neuron precursor proliferation (3H-thymidine incorporation); assay type: cell-based, rat; settings: for stimulation of 3H-thymidine incorporation: absence of Hh protein treatment
# Method: In order to test the efficacy of Hedgehog signaling agonists, the ability of the agonists to stimulate the proliferation of cerebellar neuron precursors was determined. Cerebellar granule neuron precursors are known to respond to Hh protein by proliferating. To test the agonists, cerebellar neurons were dissected out of postnatal (one week) rat brains, and placed into primary cell culture. Treatment agents were added once, on the first day of culture (0 DIV). Cells were left in culture until 2 DIV, when 3H-thymidine was added for 5 hours; the amount of incorporation by the cells of this 3H-thymidine provides a measure of the level of proliferation of the cells. Cells were then lysed, and the incorporation of 3H-thymidine was determined. The positive control was Hh protein, at 1.0 μg/ml final concentration. Hh protein alone caused approximately a 20-fold increase in 3H-thymidine incorporation, consistent with the known ability of Shh to stimulate proliferation of these cells. Non-Hh-protein-stimulated cells, including cells treated with control vehicle (DMSO), had very low levels of proliferation. […] At 5.0 μM, the p-cyanophenyl compound B caused 10.2-fold induction of 3H-thymidine incorporation. […] At 1.0, 0.3, or 0.1 μM, D caused 16-, 17-, or 13-fold induction, respectively, of 3H thymidine incorporation into the cells.
# [8] = system: Gli-1; assay: Quantitative RT-PCR (TaqMan) of Gli-1 transcript in C3H 10T1/2 cells; assay type: cell-based, Murine; settings: compound concentration 8 μM
# Method: as §1, §2, §3, §4
# [9] = system: patched (ptc-lacZ β-galactosidase reporter); assay: Ptc-lacZ reporter mice assay (X-gal staining of tissues); assay type: in vivo; settings: agonist 15 mg/kg/injection 4X/day + dipal-Shh 1 mg/kg/injection 2X/day, four days from first day after birth
# Method: Mice with a β-galactosidase transgene (ptc-lacZ mice) under the regulatory control of the patched locus express the β-galactosidase protein in the same cells where the endogenous mouse patched gene is expressed. The β-galactosidase protein can thus be used as a faithful reporter of the expression of the endogenous patched gene.
# Ptc-lacZ mice were divided into four treatment groups and were treated with the following compounds or combinations of compounds for four days, beginning on the first day after birth (dipal-Shh=dipalmitoylated Sonic hedgehog):
# The vehicle for the agonist was 10% DMSO in PBS (pH 7.2). The agonist was injected from a 4.67 mM stock dissolved in the vehicle solution.
# 18 hours following the last injections, the mice were sacrificed and the following tissues were collected: skull, kidney, lung, scapula, skin and heart. All tissues were fixed in 0.2% glutaraldehyde, 5 mM EDTA (pH 8.0), 20 mM MgCl2, 100 mM Na2HPO4 for 30 minutes before staining in 1 mg/ml X-gal, 12.5 mM potassium ferrocyanide, 12.5 mM potassium ferricyanide, 2 mM MgCl2, 0.01% deoxycholate, 0.02% NP-40, and 100 mM Na2HPO4 for 30 hours. Tissues were judged for relative intensity and photographed.
# FIG. 42: Ptc-lacZ mice were divided into two treatment groups and were treated with the following compounds for three days, beginning on the first day after birth:
# The vehicle for the agonist was 10% DMSO in PBS (pH 7.2). The agonist was injected from a 1.0 mM stock dissolved in the vehicle solution.
# Eighteen hours following the last injections, the mice were sacrificed and the forelimbs were collected and processed as described above.
# In a third experiment, Ptc-lacZ mice were divided into five treatment groups and were treated with the following compounds for four days, beginning on the first day after birth:
# The vehicle for the agonist was 10% DMSO in PBS (pH 7.2). The agonist was injected from stocks of 0.3, 0.1 and 0.03 mM dissolved in the vehicle solution.
# [10] = system: ptc-lacZ skin punches; assay: Skin explants from ptc-lacZ pups (X-Gal stain); assay type: cell-based, mouse; settings: cultured 6 days
# Method: Skin from ptc-lacZ E17.5 pups was excised with a 2 mm skin punch. Those skin punches were then cultured for 6 days in control media, or media including either agonist B or D or Hh protein, or media including both an agonist and Hh protein. The explants were then stained with X-Gal stain.
# [11] = system: ptc-1 (d11) lacZ kidney explants; assay: Kidney branching assay (ptc-1 lacZ kidney explants); assay type: cell-based, mouse; settings: 5 μM, 48 hrs
# Method: (§5) E13.5 old ptc-1 (d11) lacZ […] were harvested and transgenic embryos identified by lacZ detection using tails. Explants were assembled on 1 μm polycarbonate filters (Costar) placed on top of plastic grids (histology embedding chamber) and placed in standard 12-well tissue culture plates filled with kidney explant culture medium (DMEM based, additives optimized for the culture of mouse […]) for 48 hrs, fixed in lacZ fixative, rinsed and stained for lacZ O/N at 37° C.
# [12] = system: ptc-1 (d11) lacZ lungs; assay: Lung branching assay (ptc-1 lacZ lung explants); assay type: cell-based, mouse; settings: 5 μM, 48 hrs
# Method: as §5, with “E12.5” for “E13.5”, “lung” for “kidney”
smiles,measurement,setting,value
CN[C@H]1CC[C@H](N(Cc2ccc(OC)c(-c3ccc(C#N)cc3)c2)C(=O)c2sc3c(F)ccc(F)c3c2Cl)CC1 [X′′],number of proliferating cells in the SG of the dentate gyrus,[1],increased the number of proliferating cells in the SG of the dentate gyrus
same,number of BrdU labeled cells in the SVZ,[1]; p<0.05,increased the number of BrdU labeled cells in the SVZ
same,attenuation of damage to the nigrostriatal pathway (striatal DA and TH activity),[2],~260%
same,EC50,[3],< 5 nM
same,cortical and subcortical lesion size,[4]; post-MCAO treatment 20 mg/kg po at onset of reperfusion,dramatically reduced both cortical and subcortical lesion size
same,size of the infarct,"[4]; post-MCAO treatment 20 mg/kg po at onset of reperfusion, p<0.05",significantly decreased the size of the infarct
same,cortical infarct size,"[4]; pre-MCAO treatment 20 mg/kg po 1/day for 3 days, p=0.052",marked reduction in cortical infarct size
same,total infarct size,"[4]; pre-MCAO treatment 20 mg/kg po 1/day for 3 days, p=0.057",dramatically reduced
CNC1CCC(N(Cc2ccc(-c3cccnc3)o2)C(=O)c2sc3ccccc3c2Cl)CC1 (centres unmarked) [R],activation of Gli-Luc reporter cell line,[5],activation of the reporter cell line
same,EC50,[3],< 1000 nM
COc1ccc(CN(C(=O)c2sc3ccccc3c2Cl)C2CCC(N)CC2)cc1-c1cccc([N+](=O)[O-])c1 (centres unmarked) [A],induction of Ptc-1 relative to that obtained with the optimal concentration of Hh protein,[6],~40%
same,stimulation of 3H-thymidine incorporation,[7],significantly stimulate 3H-thymidine incorporation
same,induction of Gli-1 relative to that obtained with the optimal concentration of Hh protein,[8],~40%
COc1ccc(CN(C(=O)c2sc3ccccc3c2Cl)C2CCC(N)CC2)cc1-c1ccc(C#N)cc1 (centres unmarked) [B],induction of Ptc-1 relative to that obtained with the optimal concentration of Hh protein,[6],approximately 60%
same,induction of 3H-thymidine incorporation,"[7]; 5.0 μM, absence of Hh protein",10.2 fold
same,stimulation of 3H-thymidine incorporation,[7],significantly stimulate 3H-thymidine incorporation
same,upregulation of hedgehog pathway (β-galactosidase staining),[9],clearly capable of upregulating the hedgehog pathway in vivo
same,X-Gal staining of skin explants,[10]; agonist alone,greater staining than culturing with a low dose of Hh protein alone
same,X-Gal staining of skin explants,[10]; agonist and a low dose of Hh protein,staining similar to that of a substantially higher dose of Hh protein
same,LacZ reporter gene expression in kidney explants,[11],significantly increased reporter gene expression and expansion of the expression domain of the transgene
same,LacZ reporter gene expression in lung explants,[12],significantly increased reporter gene expression and expansion of the expression domain of the transgene
same,induction of Gli-1 relative to that obtained with the optimal concentration of Hh protein,[8],approximately 60%
same,EC50,[3],< 10000 nM

# — patent publication US8129425B2, “Small organic molecule regulators of cell proliferation” (Curis, Inc., priority 2000, dated 2012)
